Measured values published in US20040250313A1, “Insecticidal proteins and synergistic combinations thereof” (priority 2001, published 2004).
Several values for one entry are separate records, joined by “and”; a condition that tells them apart may be missing. Equal entries are not always repeated. Positions of bridges follow the written chain, without caps; N, C: chain ends. Residues, ends and D or L forms follow the SMILES beside them. No end group written: not given here.

Tests used:
Assay type in all cases: in vivo
Heliothis virescens [1] = test: Comparative insect bioassay on treated cotton leaves, neonate larvae in minipots; settings: after three days; for corrected % kill: Abbott's formula corrected
Procedure: These were carried out between the synthetic peptide having the sequence depicted as SEQ ID No. 2 (also referred to as the GGK-445 peptide) and the insecticidal peptide obtainable from the fungus Paecilomyces farinosus (referred to as “445”) and described in International Patent Application Publication Number WO01/00841. This protein, having the sequence depicted as SEQ ID No. 41, was synthesised, purified and the N-terminal Glycine was acetylated.
(§1) Prior to the assay, twenty neonate Heliothis virescens larvae were gently brushed into each of three ‘minipot’ containers per treatment (i.e. three replicates per treatment). The peptide to be tested was diluted using sterile, deionised water to create a range of test concentrations for determination of a kill curve.
(§2) Three freshly excised cotton leaves per treatment had 0.05 ml of the appropriate peptide solution applied by pipette to the centre of the axial surface of each leaf. The droplet was then spread over a circular area in excess of the diameter of a minipot with a fine artists paint brush (a fresh paint brush being used for each compound to avoid contamination), the concentrations being applied from lowest to highest. The leaves were left in a fume cupboard just long enough for the surface deposit to dry, but care was taken to avoid excessive leaf wilting.
Once dry the leaves were placed, contaminated surface down over the appropriately labelled, pre-infested minipot and a lid snapped over it. The minipots were placed in plastic trays and placed in a controlled environment room at 25-27° C.
After three days the numbers of live larvae remaining were counted and percent mortality determined. Percent mortality for the peptide treatments was corrected in comparison with the water-treated control using the Abbott's formula. Damage to the leaf was also assessed and represented as percent feeding inhibition.

Heliothis virescens [2] = test: LC50 determination, cotton leaf bioassay as in Example 2; settings: individual test, logit analysis
Procedure: as §1, §2
Once dry the leaves were placed, contaminated surface down over the appropriately labelled, pre-infested minipot and a lid snapped over it. […]
After three days the numbers of live larvae remaining were counted and percent mortality determined. […] Damage to the leaf was also assessed and represented as percent feeding inhibition.
Mean LC50 values were determined for the synthetic peptide, GGK-445, having the amino acid sequence designated in SEQ ID No. 2. […]

Helicoverpa armigera = test: as above
Spodoptera exigua = test: as above; settings: individual test, logit analysis
Spodoptera littoralis = test: as above
[3] = individual test, logit analysis

Compound: CC[C@H](C)[C@@H]1NC(=O)[C@@H]2CSSC[C@@H]3NC(=O)[C@H](CCCCN)NC(=O)[C@H](C(C)C)NC(=O)CNC(=O)[C@H](C)NC(=O)[C@@H]4CCCN4C(=O)[C@H]([C@@H](C)O)NC(=O)[C@@H](NC(=O)[C@@H](NC(=O)[C@H](CCCCN)NC(=O)CNC(=O)CN)[C@@H](C)CC)CSSC[C@H](NC(=O)[C@H](CSSC[C@@H](C(=O)N[C@@H](CCCNC(=N)N)C(=O)O)NC(=O)[C@H](C(C)C)NC(=O)[C@H](CCCCN)NC(=O)[C@H](CC(N)=O)NC(=O)[C@H](CC(N)=O)NC(=O)[C@H](C(C)C)NC(=O)CNC(=O)CNC1=O)NC(=O)[C@@H]1CCCN1C(=O)[C@H](CC(C)C)NC(=O)[C@H](C)NC(=O)[C@H](C)NC(=O)[C@@H]1CCCN1C3=O)C(=O)N1CCC[C@H]1C(=O)NCC(=O)N[C@@H](CC(C)C)C(=O)N[C@@H](CCCNC(=N)N)C(=O)N2 [GGK-445] (H-GGKICTPAGVKCPAALPCCPGLRCIGGVNNKVCR-OH; disulfide 5-19, 12-24, 18-33; N-terminus and C-terminus assumed)
- % feeding reduction compared to control (Heliothis virescens [1]; dose 0.15 ppm): 0.0%
- % feeding reduction compared to control (Heliothis virescens [1]; dose 0.46 ppm): 0.0%
- % feeding reduction compared to control (Heliothis virescens [1]; dose 1.37 ppm): 0.0%
- % feeding reduction compared to control (Heliothis virescens [1]; dose 4.12 ppm): 6.4%
- % feeding reduction compared to control (Heliothis virescens [1]; dose 12.35 ppm): 6.4%
- % feeding reduction compared to control (Heliothis virescens [1]; dose 37.04 ppm): 25.1%
- % feeding reduction compared to control (Heliothis virescens [1]; dose 111.11 ppm): 50.1%
- % feeding reduction compared to control (Heliothis virescens [1]; dose 333.33 ppm): 62.5%
- % feeding reduction compared to control (Heliothis virescens [1]; dose 1000 ppm): 81.3%
- LC50 (Heliothis virescens [2]): 171.15 ppm
- LC50 (Helicoverpa armigera; [3]): 113.24 ppm and 421.93 ppm
- mean LC50 (Helicoverpa armigera; mean of individual tests): 657.21 ppm
- LC50 (Spodoptera exigua): 339.21 ppm and 972.5 ppm and 271.32 ppm
- LC50 (Spodoptera littoralis; [3]): 283.26 ppm and 626.72 ppm and 371.71 ppm and 201.91 ppm
- mean LC50 (Spodoptera littoralis; mean of individual tests): 343.75 ppm

Compound: Y1945F - synthesised, acetylated-445: insecticidal peptide obtainable from the fungus Paecilomyces farinosus, described in WO01/00841; SEQ ID No. 41, synthesised, purified, N-terminal Glycine acetylated (Ac-GKICTPAGVKCPAALPCCPGLRCIGGVNNKVCR; cysteine pairing not given here)
- % feeding reduction compared to control (Heliothis virescens [1]; dose 0.15 ppm): 0.0%
- corrected % kill (Heliothis virescens [1]; dose 0.15 ppm): 0.0%
- % feeding reduction compared to control (Heliothis virescens [1]; dose 0.46 ppm): 0.0%
- corrected % kill (Heliothis virescens [1]; dose 0.46 ppm): 5.6%
- % feeding reduction compared to control (Heliothis virescens [1]; dose 1.37 ppm): 0.0%
- corrected % kill (Heliothis virescens [1]; dose 1.37 ppm): 13.0%
- % feeding reduction compared to control (Heliothis virescens [1]; dose 4.12 ppm): 43.8%
- corrected % kill (Heliothis virescens [1]; dose 4.12 ppm): 48.1%
- % feeding reduction compared to control (Heliothis virescens [1]; dose 12.35 ppm): 68.8%
- corrected % kill (Heliothis virescens [1]; dose 12.35 ppm): 75.9%
- % feeding reduction compared to control (Heliothis virescens [1]; dose 37.04 ppm): 68.8%
- corrected % kill (Heliothis virescens [1]; dose 37.04 ppm): 72.2%
- % feeding reduction compared to control (Heliothis virescens [1]; dose 111.11 ppm): 83.8%
- corrected % kill (Heliothis virescens [1]; dose 111.11 ppm): 98.1%
- % feeding reduction compared to control (Heliothis virescens [1]; dose 333.33 ppm): 88.8%
- corrected % kill (Heliothis virescens [1]; dose 333.33 ppm): 98.1%
- % feeding reduction compared to control (Heliothis virescens [1]; dose 1000 ppm): 91.3%
- corrected % kill (Heliothis virescens [1]; dose 1000 ppm): 100.0%
